Here are results for 19 compounds from US11866450B2, “Modulators of Cystic Fibrosis Transmembrane Conductance regulator, pharmaceutical compositions, methods of treatment, and process for making the modulators” (priority 2018, dated 2024).

The conditions of data set [1]: snar bond.
Data set [2] deals with CFTR-mediated chloride transport (Homo sapiens, UniProt P13569). Format: cell-based. Conditions: enteroid cells incubated with test compound 18-24 hours, acute 10 μM forskolin and 300 nM Compound III; for Max. Activity: % of chloride transport with 3 μM Compound A, 3 μM Compound II and 300 nM acute Compound III triple combination control. The gist of the method:
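Human intestinal enteroid cells incubated with compound 18–24 h at 37° C., then membrane potential dye (FLIPR) read 15 min after chloride-free stimulation with 10 μM forskolin, 100 μM IBMX and 300 nM Compound III. AUC expressed as % of triple-combination control (3 μM Compound A, 3 μM Compound II, 300 nM Compound III).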

Setting [3] is: from 2-chloro-6-[3-(4,4-dimethylpentoxy)-2-oxo-pyrrolidin-1-yl]-N-[[6-[3-[(3S)-5,5-dimethylpyrrolidin-3-yl]propylamino]-2-pyridyl]sulfonyl]pyridine-3-carboxamide (dihydrochloride salt), 15-membered ring, K2CO3, NMP, 24.7 mM, 155.0 °C.
Where [4] appears, read: from CC1(C)CC(CCCCCNc2cccc(S(=O)(=O)NC(=O)c3ccc(-n4ccc(OCCC5(C(F)(F)F)CC5)n4)nc3Cl)n2)CN1, 17-membered ring, K2CO3/CsF/3A MS, DMSO, 35.8 mM, 165.0 °C, 16.0 h.

Read-outs that look alike come from different tables or passages of the source.

Sequence of CFTR-mediated chloride transport (P13569 whole entry, looked up): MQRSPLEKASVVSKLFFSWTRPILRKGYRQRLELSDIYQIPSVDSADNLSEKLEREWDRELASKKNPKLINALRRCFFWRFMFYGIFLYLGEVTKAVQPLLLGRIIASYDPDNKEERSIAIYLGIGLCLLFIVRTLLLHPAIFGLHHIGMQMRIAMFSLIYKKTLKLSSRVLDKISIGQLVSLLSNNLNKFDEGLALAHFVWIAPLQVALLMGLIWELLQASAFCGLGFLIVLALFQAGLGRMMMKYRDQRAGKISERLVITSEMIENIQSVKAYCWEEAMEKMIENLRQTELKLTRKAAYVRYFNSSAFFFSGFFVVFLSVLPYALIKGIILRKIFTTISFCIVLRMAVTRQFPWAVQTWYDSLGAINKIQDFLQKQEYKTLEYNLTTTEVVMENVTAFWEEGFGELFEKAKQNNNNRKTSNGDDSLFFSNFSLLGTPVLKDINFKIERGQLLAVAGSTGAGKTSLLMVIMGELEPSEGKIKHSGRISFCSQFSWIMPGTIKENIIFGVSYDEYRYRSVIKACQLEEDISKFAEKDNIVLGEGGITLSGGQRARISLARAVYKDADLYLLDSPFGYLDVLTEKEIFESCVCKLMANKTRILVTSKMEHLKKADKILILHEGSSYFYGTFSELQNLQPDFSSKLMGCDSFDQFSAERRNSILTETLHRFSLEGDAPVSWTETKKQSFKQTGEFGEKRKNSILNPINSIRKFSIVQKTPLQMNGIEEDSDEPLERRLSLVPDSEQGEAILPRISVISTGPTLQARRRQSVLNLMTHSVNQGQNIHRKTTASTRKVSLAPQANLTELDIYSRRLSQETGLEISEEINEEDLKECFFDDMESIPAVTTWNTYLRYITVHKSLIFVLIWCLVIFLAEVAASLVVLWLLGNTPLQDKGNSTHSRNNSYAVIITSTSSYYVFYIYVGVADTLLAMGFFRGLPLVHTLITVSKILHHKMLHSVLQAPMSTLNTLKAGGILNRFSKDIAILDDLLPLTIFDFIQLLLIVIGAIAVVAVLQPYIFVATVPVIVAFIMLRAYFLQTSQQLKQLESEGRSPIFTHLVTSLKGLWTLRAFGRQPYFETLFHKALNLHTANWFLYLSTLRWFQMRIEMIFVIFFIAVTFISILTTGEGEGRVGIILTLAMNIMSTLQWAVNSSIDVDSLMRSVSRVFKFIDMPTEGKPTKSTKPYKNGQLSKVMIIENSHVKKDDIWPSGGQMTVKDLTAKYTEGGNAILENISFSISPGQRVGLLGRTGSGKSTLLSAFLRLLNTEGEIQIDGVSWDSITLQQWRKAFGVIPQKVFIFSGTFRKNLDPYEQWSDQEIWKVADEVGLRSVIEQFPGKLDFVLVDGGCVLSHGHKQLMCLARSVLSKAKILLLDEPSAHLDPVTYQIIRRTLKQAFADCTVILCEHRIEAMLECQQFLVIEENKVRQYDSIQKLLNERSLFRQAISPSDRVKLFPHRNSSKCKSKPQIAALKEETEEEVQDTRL

`CC1(C)CC2CCCn3ccc(n3)S(=O)(=O)NC(=O)c3ccc(-n4ccc(OCCC5C(C)(C)C5(C)C)n4)nc3N1C2` (stereo not drawn) gave a ring closure, isolated yield in data set [1] (from CC(C)(C)OC(=O)N1CC(CCCn2ccc(S(=O)(=O)NC(=O)c3ccc(-n4ccc(OCCC5C(C)(C)C5(C)C)n4)nc3Cl)n2)CC1(C)C, 14-membered ring, K2CO3/3A MS, NMP, 49.2 mM, 160.0 °C, 2 steps) of 20%.

`CC1(C)C[C@@H]2CCCNc3cc(OCc4ccccc4)cc(n3)S(=O)(=O)NC(=O)c3ccc(-n4ccc(OCCCC5(C(F)(F)F)CC5)n4)nc3N1C2`: in data set [1] (from CC1(C)C[C@H](CCCNc2cc(OCc3ccccc3)cc(S(=O)(=O)NC(=O)c3ccc(-n4ccc(OCCCC5(C(F)(F)F)CC5)n4)nc3Cl)n2)CN1, 15-membered ring, K2CO3/CsF, DMSO, 14.1 mM, 160.0 °C, 15.0 h), the ring closure, isolated yield is 56%.

In turn, `CC1(C)C[C@@H]2CCCNc3ccc(OCc4ccccc4)c(n3)S(=O)(=O)NC(=O)c3ccc(-n4ccc(OCCC5C6(CC6)C56CC6)n4)nc3N1C2` registered a ring closure, isolated yield in data set [1] (from CC1(C)C[C@H](CCCNc2ccc(OCc3ccccc3)c(S(=O)(=O)NC(=O)c3ccc(-n4ccc(OCCC5C6(CC6)C56CC6)n4)nc3Cl)n2)CN1, 15-membered ring, K2CO3, NMP, 57.2 mM, 150.0 °C, 20.0 h) of 37%.

For `CC1(C)C[C@@H]2CCCNc3ccc(OCc4ccccc4)c(n3)S(=O)(=O)NC(=O)c3ccc(-n4ccc(OCCCC5(C(F)(F)F)CC5)n4)nc3N1C2`, the ring closure, isolated yield in data set [1] (from N-[[3-benzyloxy-6-[3-[(3S)-5,5-dimethylpyrrolidin-3-yl]propylamino]-2-pyridyl]sulfonyl]-2-chloro-6-[3-[3-[1-(trifluoromethyl)cyclopropyl]propoxy]pyrazol-1-yl]pyridine-3-carboxamide (ditrifluoroacetate salt), 15-membered ring, K2CO3, NMP, 42.6 mM, 150.0 °C) came out at 39%.

In data set [1] (from CC1(C)C[C@H](CCCNc2cccc(S(=O)(=O)NC(=O)c3ccc(-n4ccc(OCC(O[Si](C)(C)C(C)(C)C)C5C6(CC6)C56CC6)n4)nc3Cl)n2)CN1, 15-membered ring, K2CO3/MS, DMSO, 9.9 mM, 140.0 °C, 12.0 h), `CC1(C)C[C@@H]2CCCNc3cccc(n3)S(=O)(=O)NC(=O)c3ccc(-n4ccc(OCC(O[Si](C)(C)C(C)(C)C)C5C6(CC6)C56CC6)n4)nc3N1C2` (stereo partly drawn) showed a ring closure, isolated yield of 55%.

For `CC1(C)C[C@@H]2CCCNc3nc(ccc3OCc3ccccc3)S(=O)(=O)NC(=O)c3ccc(-n4ccc(OCCC5C6(CC6)C56CC6)n4)nc3N1C2`, the ring closure, isolated yield in data set [1] (from CC1(C)C[C@H](CCCNc2nc(S(=O)(=O)NC(=O)c3ccc(-n4ccc(OCCC5C6(CC6)C56CC6)n4)nc3Cl)ccc2OCc2ccccc2)CN1, 15-membered ring, K2CO3/CsF, DMSO, 17.2 mM, 160.0 °C, 15.0 h) was 83%.

Regarding `CC1CCC2CN(c3nc(Cl)ccc3C(=O)NS(=O)(=O)c3cccc(n3)N1)C(C)(C)C2` (stereo not drawn), in data set [1] (from CC(CCC1CN(C(=O)OC(C)(C)C)C(C)(C)C1)Nc1cccc(S(=O)(=O)NC(=O)c2ccc(Cl)nc2Cl)n1, 15-membered ring, K2CO3/CsF/3A MS, DMSO, 229.0 mM, 140.0 °C, 2 steps), the ring closure, isolated yield is 31%.

In turn, `[2H]C([2H])(COc1ccn(-c2ccc3c(n2)N2C[C@@H](CCCNc4nc(ccc4OCc4ccccc4)S(=O)(=O)NC3=O)CC2(C)C)n1)C1C2(CC2)C12CC2` came in with a ring closure, isolated yield in data set [1] (from [2H]C([2H])(COc1ccn(-c2ccc(C(=O)NS(=O)(=O)c3ccc(OCc4ccccc4)c(NCCC[C@@H]4CN(C(=O)OC(C)(C)C)C(C)(C)C4)n3)c(Cl)n2)n1)C1C2(CC2)C12CC2, 15-membered ring, K2CO3/CsF/4A MS, DMSO, 51.0 mM, 150.0 °C, 2 steps) of 68%.

For `[2H]C([2H])(Oc1ccn(-c2ccc3c(n2)N2C[C@@H](CCCNc4cccc(n4)S(=O)(=O)NC3=O)CC2(C)C)n1)C([2H])([2H])C1C2(CC2)C12CC2`, in data set [1] (from [2H]C([2H])(Oc1ccn(-c2ccc(C(=O)NS(=O)(=O)c3cccc(NCCC[C@@H]4CN(C(=O)OC(C)(C)C)C(C)(C)C4)n3)c(Cl)n2)n1)C([2H])([2H])C1C2(CC2)C12CC2, 15-membered ring, K2CO3/3A MS, NMP, 22.2 mM, 155.0 °C, 2 steps), the ring closure, isolated yield was 60%.

In data set [1] (17-membered ring, K2CO3/CsF, DMSO, 42.1 mM, 150.0 °C), “12,12,19-trimethyl-8-(3-{2-[1-(trifluoromethyl)cyclopropyl]ethoxy}-1H-pyrazol-1-yl)-2λ^6-thia-3,9,11,19,21-pentaazatetracyclo[18.2.2.111,14.05,10]pentacosa-1(23),5,7,9,20(24),21-hexaene-2,2,4-trione (dihydrochloride salt)” registered a ring closure, isolated yield of 39%.

Take `CN1CCCC2CCC(C)(C)N2c2nc(-n3ccc(OCCC4(C(F)(F)F)CC4)n3)ccc2C(=O)NS(=O)(=O)c2cccc1n2` (racemic) [Compound 9, 12,12,19-trimethyl-8-(3-{2-[1-(trifluoromethyl)cyclopropyl]ethoxy}-1H-pyrazol-1-yl)-2λ^6-thia-3,9,11,19,24-pentaazatetracyclo[18.3.1.05,10.011,15]tetracosa-1(23),5,7,9,20(24),21-hexaene-2,2,4-trione]: in data set [2], the EC50 (as a rule, the concentration that produces a half-maximal response) is below 1 µM and the “Max. Activity” value was “++ (++ is 30-60%)”. The ring closure, isolated yield in data set [1] (from CN(CCCC1CCC(C)(C)N1)c1cccc(S(=O)(=O)NC(=O)c2ccc(-n3ccc(OCCC4(C(F)(F)F)CC4)n3)nc2Cl)n1, 14-membered ring, K2CO3/CsF/3A MS, DMSO, 72.3 mM, 150.0 °C, 25.0 h) is 78%.

On to `CC1(C)CC2CCCNc3cccc(n3)S(=O)(=O)NC(=O)c3ccc(-n4ccc(OCCC5(C(F)(F)F)CC5)n4)nc3N1C2` (racemic) [Compound 12, 12,12-dimethyl-8-(3-{2-[1-(trifluoromethyl)cyclopropyl]ethoxy}-1H-pyrazol-1-yl)-2λ^6-thia-3,9,11,18,23-pentaazatetracyclo[17.3.1.111,14.05,10]tetracosa-1(23),5(10),6,8,19,21-hexaene-2,2,4-trione], for which, in data set [2], the EC50 was below 1 µM and the “Max. Activity” value is “+++ (+++ is >60%)”. For the same compound, in data set [1] (from 2-chloro-N-[[6-[3-(5,5-dimethylpyrrolidin-3-yl)propylamino]-2-pyridyl]sulfonyl]-6-[3-[2-[1-(trifluoromethyl)cyclopropyl]ethoxy]pyrazol-1-yl]pyridine-3-carboxamide (dihydrochloride salt), 15-membered ring, K2CO3/CsF, NMP, 144.7 mM, 150.0 °C), the ring closure, isolated yield turned out to be 67%.

In the case of `CC1(C)CC2CCCNc3cccc(n3)S(=O)(=O)NC(=O)c3ccc(-n4ccc(OCC5(C(F)(F)F)CC5)n4)nc3N1C2` (racemic) [Compound 15, 12,12-dimethyl-8-(3-{[1-(trifluoromethyl)cyclopropyl]methoxy}-1H-pyrazol-1-yl)-2λ^6-thia-3,9,11,18,23-pentaazatetracyclo[17.3.1.111,14.05,10]tetracosa-1(23),5(10),6,8,19,21-hexaene-2,2,4-trione], in data set [2], the EC50 was below 1 µM and the “Max. Activity” value was “+++ (+++ is >60%)”. This compound gave a ring closure, isolated yield in data set [1] (from CC1(C)CC(CCCNc2cccc(S(=O)(=O)NC(=O)c3ccc(-n4ccc(OCC5(C(F)(F)F)CC5)n4)nc3Cl)n2)CN1, 15-membered ring, K2CO3/CsF/3A MS, DMSO, 43.8 mM, 150.0 °C, 16.0 h, 2 steps) of 54%.

Regarding `CC1(C)CC2CCCCNc3cccc(n3)S(=O)(=O)NC(=O)c3ccc(-n4ccc(OCCC5(C(F)(F)F)CC5)n4)nc3N1C2` (racemic) [Compound 28, 12,12-dimethyl-8-(3-{2-[1-(trifluoromethyl)cyclopropyl]ethoxy}-1H-pyrazol-1-yl)-2λ^6-thia-3,9,11,19,24-pentaazatetracyclo[18.3.1.111,14.05,10]pentacosa-1(23),5,7,9,20(24),21-hexaene-2,2,4-trione], in data set [2], the EC50 was below 1 µM and the “Max. Activity” value is given as “++ (++ is 30-60%)”. The same compound yielded a ring closure, isolated yield in data set [1] (from CC1(C)CC(CCCCNc2cccc(S(=O)(=O)NC(=O)c3ccc(-n4ccc(OCCC5(C(F)(F)F)CC5)n4)nc3Cl)n2)CN1, 16-membered ring, K2CO3/CsF/3A MS, DMSO, 62.4 mM, 150.0 °C, 18.0 h, 2 steps) of 60%.

Turning to `CC(C)(C)CCCOC1CCN(c2ccc3c(n2)N2C[C@@H](CCCNc4cccc(n4)S(=O)(=O)NC3=O)CC2(C)C)C1=O` (single isomer, unassigned; diastereomer 1), in data set [1] (setting [3]), the ring closure, isolated yield worked out at 20%.

Regarding `CC(C)(C)CCCOC1CCN(c2ccc3c(n2)N2C[C@@H](CCCNc4cccc(n4)S(=O)(=O)NC3=O)CC2(C)C)C1=O` (single isomer, unassigned; diastereomer 2), the ring closure, isolated yield in data set [1] (setting [3]) amounted to 19%.

In data set [1] (setting [4]), `CC1(C)CC2CCCCCNc3cccc(n3)S(=O)(=O)NC(=O)c3ccc(-n4ccc(OCCC5(C(F)(F)F)CC5)n4)nc3N1C2` (single isomer, unassigned; enantiomer 1) registered a ring closure, isolated yield of 47%.

In turn, `CC1(C)CC2CCCCCNc3cccc(n3)S(=O)(=O)NC(=O)c3ccc(-n4ccc(OCCC5(C(F)(F)F)CC5)n4)nc3N1C2` (single isomer, unassigned; enantiomer 2) had a ring closure, isolated yield in data set [1] (setting [4]) of 50%.

The compound “racemic 8-[3-(2-{dispiro[2.0.2.1]heptan-7-yl}ethoxy)-1H-pyrazol-1-yl]-16,16-difluoro-12,12-dimethyl-2λ^6-thia-3,9,11,18,23-pentaazatetracyclo[17.3.1.111,14.05,10]tetracosa-1(22),5,7,9,19(23),20-hexaene-2,2,4-trione” gave a ring closure, isolated yield in data set [1] (15-membered ring, K2CO3, NMP, 31.1 mM, 150.0 °C) of 83%.
